Source: US7179805B2, “7-amino alkylidenyl-heterocyclic quinolones and naphthyridones” (Janssen Pharmaceutica N.V., priority 2003, dated 2007)

Tests used:
[1] = test system: Streptococcus pneumoniae ATCC 49619; assay: MIC, microdilution broth method (NCCLS); assay type: cell-based; settings: ATCC49619; organism E: Streptococcus pneumoniae ATCC 49619; 35° C., 16–20 hours
Method: (§1) Minimal inhibitory concentration (MIC) has been an indicator of in vitro antibacterial activity widely used in the art. The in vitro antimicrobial activity of the compounds was determined by the microdilution broth method following the test method from the National Committee for Clinical Laboratory Standards (NCCLS). This method is described in the NCCLS Document M7-A4, Vol.17, No.2, “Methods for Dilution Antimicrobial Susceptibility Test for Bacteria that Grow Aerobically—Fourth Edition”, which is incorporated herein by reference.
(§2) In this method two-fold serial dilutions of drug in cation adjusted Mueller-Hinton broth are added to wells in microdilution trays. The test organisms are prepared by adjusting the turbidity of actively growing broth cultures so that the final concentration of test organism after it is added to the wells is approximately 5×10^4 CFU/well.
(§3) Following inoculation of the microdilution trays, the trays are incubated at 35° C. for 16–20 hours and then read. […] The amount of growth in the wells containing the test compound is compared with the amount of growth in the growth-control wells (no test compound) used in each tray. As set forth in Table 5, compounds of the present invention were tested against a variety of pathogenic bacteria resulting in a range of activities depending on the organism tested.

[2] = test system: Staphylococcus aureus OC4172; assay: MIC, microdilution broth method (NCCLS); assay type: cell-based; settings: organism A: Staphylococcus aureus OC4172; 35° C., 16–20 hours
Method: as §1, §2, §3

`NCC(F)=C1CCN(c2cc3c(cc2F)c(=O)c(C(=O)O)cn3C2CC2)CC1.O=C(O)C(F)(F)F` [Compound 5, 7-[4-(2-Amino-1-fluoro-ethylidene)piperidin-1-yl]-1-cyclopropyl-6-fluoro-4-oxo-1,4-dihydroquinoline-3-carboxylic acid trifluoroacetic acid salt] gave an MIC [1] of 0.06 µg/mL.

Work on `CNCC=C1CCN(c2c(F)cc3c(=O)c(C(=O)O)cn(C4CC4)c3c2OC)CC1.O=C(O)C(F)(F)F` [Compound 221, 1-Cyclopropyl-6-fluoro-8-methoxy-7-[4-(2-methylaminoethylidene)piperidin-1-yl]-4-oxo-1,4-dihydroquinoline-3-carboxylic acid trifluoroacetic acid salt] yielded an MIC [2] of 0.12 µg/mL and an MIC [1] of 0.5 µg/mL.
